Experimental data reported in EP2373670B1, “NOVEL AMINO SUBSTITUTED C-GLYCOSIDE DERIVATIVES AND USE THEREOF AS COSMETIC” (L'Oréal, priority 2008, dated 2010).

What was measured:
Type in all cases: cell-based
[1] = tested on: fibroblastes dermiques humains normaux; test: Synthesis of sulfated glycosaminoglycans (radioactive label incorporation) in fibroblast cultures; conditions: fibroblasts, second experiment, n=2; for activity at 100 µM / activity at 1000 µM: Fibroblast, control = 100, read-out: % (synthèse des glycosaminoglycanes par rapport au témoin)
kératinocytes [2] = test: Synthesis of sulfated glycosaminoglycans (radioactive label incorporation) in keratinocyte cultures; conditions: keratinocytes, second experiment, n=2
kératinocytes [3] = test: as above; conditions: keratinocytes, n=3
Source text: (§1) Etude de l'effet de dérivés C-glycosides sur la synthèse des glycosaminoglycannes sulfatés sur fibroblastes et sur kératinocytes : • L'étude est faite par mesure de l'incorporation de glucosamine radioactive dans la matrice néosynthétisée par des cultures de fibroblastes dermiques humains normaux ou par des kératinocytes. L'incorporation de glucosamine radioactive indique une néosynthèse spécifique de glycosaminoglycannes via une incorporation de la forme acétylée de cette glucosamine.
Les cultures de kératinocytes sont effectuées en milieu Keratinocyte-SFM vendu par la société Gibco , en présence d'EGF (Epidermal Growth Factor) (0,25 ng/ml), d'extrait pituitaire (25 µg/ml) et de gentamycine (25 µg/ml).
(§2) Les fibroblastes et les kératinocytes ont été cultivés en plaques de 96 puits. A confluence, le milieu de culture a été remplacé par du milieu de culture adéquat contenant ou non (témoin) le composé à tester ou la référence, puis les cellules ont été incubées pendant 48 heures. Le marqueur radioactif 35 S-sulfate a été ajouté (40 µCi final) et les cellules ont été incubées pendant 24 heures supplémentaires. Toutes les conditions ont été réalisées 3 fois.
(§3) Les glycosaminoglycanes de la matrice extracellulaire ont été extraits avec un volume tampon chaotropique (Tris/HCl 50 mM, guanidine 4 M, EDTA 5 mM, pH 8,0). Les GAGs sulfatés ont été purifiés par chromatographie d'échanges d'ions : absorption des molécules anioniques sur billes de Q-Sépahrose dans des conditions de forte stringence, désorption des molécules peu et moyennement anioniques avec uns solution urée 6 M NaCl […], puis lavages. La radioactivité incorporée dans les molécules […] restées sur le support (GAGs majoritairement) a été mesurée par scintillation liquide. Les résultats sont évalués par apport à un témoin constitué par des cellules n'ayant pas été traitées avec un composé de formule (I). Un témoin positif (TGFβ à 10 ng/ml) connu pour stimuler la synthèse des GAGs est introduit dans le test effectéu sur fibroblastes comme référence positive. Un témoin positif (CaCl2 à 1,4 mM) connu pour stimuler la synthèse des GAGs est introduit dans le test effectué sur kératinocytes comme référence positive.
(§4) Les résultats sont exprimés en pourcentage de variation de la synthèse des glycosaminoglycanes par rapport au témoin.
(§5) On a effectué 3 essais pour le composé testé.
(§6) Les comparaisons des résultats obtenus pour un composé testé ont été réalisés à l'aide du test de Student.
(§7) L'écart type de la moyenne (esm) a été calculé selon la relation suivante : esm = écart type/((n))^(1/2) [formula] • n étant le nombre d'essais effectués.
(§8) Les valeurs mesurées sont données en coups par minute (cpm) • n : nombre d'essais effectués • p : intervalle de confiance • esm : écart type de la moyenne

[4] = tested on: fibroblastes dermiques humains normaux; test: Synthesis of sulfated glycosaminoglycans (radioactive label incorporation) in fibroblast cultures; conditions: for augmenter la synthèse des GAGs sulfatés: summary in words of the results on fibroblasts and keratinocytes
Source text: as §1
Les cultures de fibroblastes sont effectuées selon les méthodes classiques de culture cellulaire, à savoir en milieu DMEM vendu par la société Gibco, en présence de L-glutamine (2 mM), de pénicilline (50 Ul/ml) et de 10% de sérum de veau foetal (Gibco).
as §2, §3, §4, §5, §6, §7, §8

[5] = Keratinocyte, 0,1 mM, control = 100, read-out: % (synthèse des glycosaminoglycanes par rapport au témoin)
[6] = Keratinocyte, 1 mM, control = 100, read-out: % (synthèse des glycosaminoglycanes par rapport au témoin)

Compound	activity at 100 µM ([1]; 0,1 mM)	activity at 1000 µM ([1]; 1 mM)	Valeur moyenne ([1]; 0,1 mM)	Valeur moyenne ([1]; 1 mM)	activity at 100 µM (kératinocytes [2]; [5])	activity at 1000 µM (kératinocytes [2]; [6])	Valeur moyenne (kératinocytes [2]; 0,1 mM)	Valeur moyenne (kératinocytes [2]; 1 mM)	augmenter la synthèse des GAGs sulfatés [4]	further results
CC(C[C@@H]1OC[C@@H](O)[C@H](O)[C@H]1O)NCCCO (stereo partly drawn) [1-[2-(3-hydroxy-propylamino)-propyl]-C-β-D-xylopyranose]	113%	121%	2856 cpm	3039 cpm	99%	145%	12660 cpm	18691 cpm	–	–
CNC(C)C[C@@H]1OC[C@@H](O)[C@H](O)[C@H]1O (stereo partly drawn) [1-[2-(méthylamino)-propyl]-C-β-D-xylopyranose]	102%	106%	2569 cpm	2659 cpm	93%	139%	11922 cpm	17916 cpm	–	–
CC(N)C[C@@H]1OC[C@@H](O)[C@H](O)[C@H]1O (stereo partly drawn) [1-[2-amino-propyl]-C-β-D-xylopyranose]	91%	139%	2301 cpm	3507 cpm	113%	225%	14465 cpm	28870 cpm	–	–
[Ca+2].[Cl-].[Cl-] [CaCl2, reference compound]	–	–	–	–	–	–	–	–	–	% (synthèse des glycosaminoglycanes par rapport au témoin) (kératinocytes [3]; positive control CaCl2 at 1,4 mM, control = 100, 1400 µM): 117%; Valeur moyenne (kératinocytes [3]; positive control CaCl2 at 1,4 mM): 5273 cpm
CCOC(=O)C(Cc1ccccc1)NC(C)CC1OCC(O)C(O)C1O [Composé de l'exemple 5, chlorhydratede l'ester éthyliquede l'acide 2R-[1-méthyl 2-(C-β-D-xylopyranoside) éthyl]-amino 3-phényl propanoïque]	–	–	–	–	–	–	–	–	très efficaces	activity at 370 µM ([4]; Fibroblast, fibroblasts, 0,37 mM, control = 100, n=3, read-out: % (synthèse des glycosaminoglycanes par rapport au témoin)): 616%; activity at 1110 µM ([4]; Fibroblast, fibroblasts, 1,11 mM, control = 100, n=3, read-out: % (synthèse des glycosaminoglycanes par rapport au témoin)): 605%; Valeur moyenne ([4]; fibroblasts, 0,37 mM, n=3): 14373 cpm; Valeur moyenne ([4]; fibroblasts, 1,11 mM, n=3): 14111 cpm; activity at 66 µM (kératinocytes [3]; Keratinocyte, 66 µM, control = 100, read-out: % (synthèse des glycosaminoglycanes par rapport au témoin)): 438%; activity at 200 µM (kératinocytes [3]; Keratinocyte, 200 µM, control = 100, read-out: % (synthèse des glycosaminoglycanes par rapport au témoin)): 570%; Valeur moyenne (kératinocytes [3]; 66 µM): 21975 cpm; Valeur moyenne (kératinocytes [3]; 200 µM): 29007 cpm
CCCCCCNC(C)C[C@@H]1OC[C@@H](O)[C@H](O)[C@H]1O (some centres unmarked) [Composé de l'exemple 10]	553%	595%	13925 cpm	14992 cpm	427%	255%	54897 cpm	32733 cpm	très efficaces	–
CCCNC(C)C[C@@H]1OC[C@@H](O)[C@H](O)[C@H]1O (some centres unmarked) [Composé de l'exemple 11]	127%	441%	3197 cpm	11109 cpm	–	–	–	–	très efficaces	activity at 0.1 µM (kératinocytes [2]; Keratinocyte, 0,1 µM, control = 100, read-out: % (synthèse des glycosaminoglycanes par rapport au témoin)): 112%; activity at 1 µM (kératinocytes [2]; Keratinocyte, 1 µM, control = 100, read-out: % (synthèse des glycosaminoglycanes par rapport au témoin)): 351%; Valeur moyenne (kératinocytes [2]; 0,1 µM): 14408 cpm; Valeur moyenne (kératinocytes [2]; 1 µM): 45124 cpm
